Measurements: patent publication US20250222109A1, “STRUCTURED LIPID COMPOSITIONS” (Universität Bern, priority 2022, published 2025)
Where a name gives a salt, the structure may show the parent alone.

Tests used:
[1] = SAXS phase identification of MLO-water mesophases (TIF-Gel); assay type: physicochemical
Procedure: SAXS measurements were used to determine the phase identity and symmetry of the produced LMPs. Measurements were performed on a Bruker AXS Micro, with a microfocused X-ray source, operating at voltage and filament current of 50 kV and 1000 μA, respectively. The Cu Kα radiation (λCu Kα=1.5418 Å) was collimated by a 2D Kratky collimator, and the data were collected by a 2D Pilatus 100K detector. The scattering vector Q=(4π/λ) sin θ, with 2θ being the scattering angle, was calibrated using silver behenate. Data were collected and azimuthally averaged using the Saxsgui software to yield 1D intensity vs. scattering vector Q, with a Q range from 0.001 to 0.5 Å^−1. For all measurements the samples were placed inside a stainless-steel cell between two thin replaceable mica sheets and sealed by an O-ring, with a sample volume of 10 μL and a thickness of ˜1 mm. Measurements were performed at 25° C., 30° C., 34° C., 36° C. and 38° C. Samples were equilibrated for 10 min before measurements whereas scattered intensity was collected over 30 min and over 60 min in case of lamellar phase. On the other hand, for the kinetic study, the sample was pre equilibrated at 25° C. and inserted in the sample holder kept at 38° C. and the scattered intensity collected over 5 min. To determine the structural parameters such as the size of the water channels, SAXS data information on the lattice were combined with the composition of the samples (R. Mezzenga, et al., Shear rheology of lyotropic liquid crystals: a case study, Langmuir 21, 3322-3333 (2005)).
MLO was used as the lipid component of the mesophases and mixed with weighed amounts of drugs (10% w/w) in sealed Pyrex tubes and alternatively centrifuging (10 min, 5000 g) several times at room temperature until a homogenous mixture was obtained. The mesophase was then equilibrated for 48 h at room temperature in the dark (see, FIGS. 1A and 1B).
Firstly, small angle X-ray scattering (SAXS) measurements were used to determine the optimal amount of water needed to obtain a lamellar phase which provides a transition to a cubic at 38° C. (FIGS. 2B and 2C). The X-ray beam directed at the gel results in a scattering pattern with a set of maxima, that correspond to sharp Bragg reflections characteristic of the long-range positional order. The sequence of Bragg reflections (and their ratio; listed in FIG. 2A) identifies the symmetry of the mesophase studied (See also FIGS. 1A and 1B).

[2] = In vitro release of TOFA and TAC from TIF-Gel, vertical diffusion cells; assay type: physicochemical; settings: HEPES pH 7.4, 37° C., 8 h
Source text: In the in vitro release experiments, drug-loaded TIF-Gel formulations were placed in the donor chamber of a vertical diffusion cell (as depicted in FIG. 3G) and kept separated from the acceptor chamber by a polycarbonate membrane with pore diameter of 3 μm, which allows the passage of the free drugs only.

[3] = Stability study of TAC and TOFA-loaded TIF-Gel (HPLC); assay type: physicochemical; settings: 4° C. and 25° C., one-month period
Procedure: The TAC and TOFA-loaded TIF-Gels were prepared according to Example 1. […] The TAC-loaded TIF-Gel composition comprised a) a carrier comprising: a1) water in an amount of 16% by weight of the carrier; and a2) MLO in an amount of 84% by weight of the carrier; and b) TAC in an amount of 1% by weight of the composition. […] At specific time points, an aliquot of the formulation was analysed at the HPLC, and the content of the drug was recorded. Data are expressed as relative percentage referred to day 0.

[4] = test system: dextran sulfate sodium (DSS)-induced acute colitis; experiment: Chemically induced colitis based on application of DSS; assay type: in vivo, mice
Source text: Female 6-8 week-old C57B/6J Mice (ex. Charles River Germany) were maintained under specific and opportunistic pathogen-free (SOPF) microbiota conditions at the animal facility of the University of Bern. Mice were ear marked, randomly assigned to different cages and treatment groups, and bedding mixed between all cages to avoid potential cage effects on microbiota. All methods used were approved by the Bernese animal welfare authority (permission no. BE 20/18). […] The next day, mouse drinking water was supplemented with 2% w/v dextran sodium sulfate (DSS; MP Biomedicals, 160110). Every other day, the different compounds were applied intra-rectally until the end of the experiment. During the experiment, the mice were constantly monitored and the weight and disease scores were recorded when appropriate. Disease score was determined by grading of 1-4 of the following criteria (with grade 4 corresponding to most unhealthy/abnormal): posture, mobility, fur appearance, weight, stool consistency, and stool colour (L. F. Mager, et al., The ESRP1-GPR137 axis contributes to intestinal pathogenesis, Elife 6 (2017), doi: 10.7554/eLife.28366.). […]
The gating strategy was adapted from the inventors previously published work (S. E. Liyanage, et al., Flow cytometric analysis of inflammatory and resident myeloid populations in mouse ocular inflammatory models, Exp. Eye Res. 151, 160-170 (2016)). […] Splenocytes were quantified using a CASY cell counter (Omni Life Sciences) and the following populations were quantified following single cell and live/dead selection (Thermofischer, L34961). […] Stained cells were analysed on a BD Bioscience LSR II SORP flow cytometer.
DSS is toxic to epithelial cells and its application compromises the integrity of the intestinal barrier, thereby leading to activation of submucosal immune cells by intestinal microbes. Through experimentation, it was determined that bi-daily application of the gel yielded robust mitigation of local and systemic inflammation.

[5] = Drug encapsulation and distribution in TIF-Gel (WAXS, HPLC of gel layers); assay type: physicochemical
Procedure: The tube was centrifuged and kept at rest for 24 hours. Subsequently, the gel was divided into 3 different layers (Top, Middle, and Bottom), and the drug content evaluated in each by HPLC.
WAXS measurements were performed on a Bruker AXS Micro, with a microfocused X-ray source, operating at voltage and filament current of 50 kV and 1000 μA, respectively. The Cu Kα radiation (λCu Kα=1.5418 Å) was collimated by a 2D Kratky collimator, and the data were collected by a 2D Pilatus 100K detector. The scattering vector Q=(4π/λ) sin θ, with 2θ being the scattering angle, was calibrated using silver behenate. Data were collected and azimuthally averaged using the Saxsgui software to yield 1D intensity vs. scattering vector Q, with a Q range from 13 to 18 nm-1. For all measurements the samples were placed inside a stainless-steel cell between two thin replaceable mica sheets and sealed by an O-ring, with a sample volume of 10 μL and a thickness of ˜1 mm.
The TAC loaded mesophase composition comprised: a) a carrier comprising: a1) water in an amount of 16% by weight of the carrier; and a2) MLO in an amount of 84% by weight of the carrier; and b) TAC in an amount of 1% by weight of the composition.

[6] = SAXS phase identification of MLO-water mesophases (TIF-Gel); assay type: physicochemical; settings: 5 mg of TOFA and 1 mg of TAC in 100 mg of gel
[7] = rectal, every other day, vs empty TIF-Gel

SMILES | phase identity (SAXS) ([1]; 12% of water, 25° C. and 38° C.) | phase identity (SAXS) ([1]; 14% of water, 25° C.) | phase identity (SAXS) ([1]; 14% of water, 38° C.) | phase identity (SAXS) ([1]; 16% w/w of water and 84% w/w of MLO, 25° C.) | phase identity (SAXS) ([1]; 16% w/w of water and 84% w/w of MLO, 38° C.) | temperature of the L→Q transition ([1]; 18% w/w of water) [°C] | phase transition in the presence of lipase ([1]; lipase 1000 U/mL) | time of conversion of precursor L phase into the cubic phase ([1]; once applied into the rectum) [min] | effect of drug on phase identity and transition temperature of the gel ([1]; 10% w/w of drug, lamellar at room temperature, cubic (Ia3d) at 38° C.) | drug release from the gel vs free drug, in vitro [2] | long-term stability of drug loaded into TIF-gel (drug content by HPLC) [3] | local pro-inflammatory cytokine levels ([4]; colon tissue) | disease score / disease severity [4, 7] | weight loss [4, 7] | distribution of drug in the gel matrix ([5]; Top, Middle and Bottom gel layers, HPLC) | drug crystallisation in the gel (WAXS) ([5]; embedded in the 3D gel structure) | encapsulation efficacy ([5]; encapsulated in the TIF-Gel) [%] | effect of drug entrapment on phase identity and thermal behaviour of the carrier gel [6]
CCCCC/C=C\C/C=C\CCCCCCCC(=O)OCC(O)CO (stereo not drawn) [MLO, 2,3-dihydroxypropyl(9Z,12Z)-9,12-octadecadienoate] | L phase | lamellar structure | coexistence of L and Q structure (with a Ia3d geometry) | lamellar structure | Q structure (with a Ia3d geometry) | 30 | Q→Hexagonal phase (H) | < 5 |  |  |  |  |  |  |  |  |  | 
C[C@@H]1CCN(C(=O)CC#N)C[C@@H]1N(C)c1ncnc2[nH]ccc12 [TOFA, Tofacitinib citrate] |  |  |  |  |  |  |  |  | did not affect the phase identity and the transition temperature | decreased the release rate | stable | reduced | did not improve the disease score | improving weight loss | homogeneously distributed | do not form crystals | 100 | did not affect the phase identity and thermal behaviour
